Measurements reported in patent US20250171438A1 (Agios Pharmaceuticals, Inc., priority 2022, published 2025).

What follows are molecules tested against T1, human PAH with the R408W mutation (Homo sapiens, UniProt P00439, R408W) (assay: Cell Based Phenylalanine Flux Assay). Settings: A375 cells expressing human R408W PAH; 24 hrs compound incubation; 13C-Tyrosine by LC-MS; average where tested multiple times; read-out: AC50.
T1 construct: expressed in transfected cells
T1 sequence (P00439 1-452 R408W): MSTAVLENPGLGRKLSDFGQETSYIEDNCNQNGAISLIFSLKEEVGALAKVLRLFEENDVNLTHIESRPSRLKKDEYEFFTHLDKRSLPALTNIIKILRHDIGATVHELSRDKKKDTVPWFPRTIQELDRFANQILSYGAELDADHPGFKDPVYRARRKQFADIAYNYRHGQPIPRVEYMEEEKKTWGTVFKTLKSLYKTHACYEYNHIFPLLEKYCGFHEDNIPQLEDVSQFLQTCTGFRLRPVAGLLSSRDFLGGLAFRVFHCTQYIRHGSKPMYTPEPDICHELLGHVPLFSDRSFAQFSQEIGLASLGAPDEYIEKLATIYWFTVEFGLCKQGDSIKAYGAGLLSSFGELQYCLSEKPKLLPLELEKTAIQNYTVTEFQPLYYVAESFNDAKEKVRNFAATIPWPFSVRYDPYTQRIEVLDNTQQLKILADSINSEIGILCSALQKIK
Set-up: scale not given here

SMILES	AC50 [nM]
CC(C)(O)c1ncc(C(=O)N2CC3(CC3)c3[nH]cnc3[C@@H]2c2nc3ccccc3s2)o1 [Example 1678, (R)-(4′-(benzo[d]thiazol-2-yl)spiro[cyclopropane-1,7′-imidazo[4,5-c]pyridin]-5′(1′H,4′H,6′H)-yl)(2-(2-hydroxypropan-2-yl)oxazol-5-yl)methanone]	1000 to 5000
O=C(c1cnn2ccccc12)N1CCc2[nH]cnc2[C@H]1c1nc2cccc(F)c2s1 [Example 1109, (S)-(4-(7-fluorobenzo[d]thiazol-2-yl)-6,7-dihydro-1H-imidazo[4,5-c]pyridin-5(4H)-yl)(pyrazolo[1,5-a]pyridin-3-yl)methanone]	500 to 1000
Cc1ncoc1C(=O)N1CCc2[nH]cnc2[C@H]1c1nc2c(F)cccc2s1 [Example 1319, (S)-(4-(4-fluorobenzo[d]thiazol-2-yl)-6,7-dihydro-1H-imidazo[4,5-c]pyridin-5(4H)-yl)(4-methyloxazol-5-yl)methanone]	< 500
O=C(c1nnc(-c2ncccc2F)o1)N1CCc2[nH]cnc2[C@H]1c1nc2c(F)cccc2s1 [Example 1902, (S)-(4-(4-fluorobenzo[d]thiazol-2-yl)-6,7-dihydro-1H-imidazo[4,5-c]pyridin-5(4H)-yl)(5-(3-fluoropyridin-2-yl)-1,3,4-oxadiazol-2-yl)methanone]	< 500
O=C(c1cnn2ccccc12)N1CCc2[nH]cnc2[C@H]1c1nc2c(Br)cccc2s1 [Example 1241, (S)-(4-(4-bromobenzo[d]thiazol-2-yl)-6,7-dihydro-1H-imidazo[4,5-c]pyridine-5(4H)-yl)(pyrazolo [1,5-a]pyridin-3-yl)methanone]	500 to 1000
O=C(c1ocnc1C1CC1)N1CCc2[nH]cnc2[C@@H]1c1nc2c(F)cccc2s1 [Example 1496, (R)-(4-cyclopropyloxazol-5-yl)(4-(4-fluorobenzo[d]thiazol-2-yl)-6,7-dihydro-1H-imidazo[4,5-c]pyridin-5(4H)-yl)methanone]	1000 to 5000
Cn1nc(Cl)cc1C(=O)N1CCc2[nH]cnc2[C@@H]1c1nc2c(F)cccc2s1 [Example 1722, (R)-(3-chloro-1-methyl-1H-pyrazol-5-yl)(4-(4-fluorobenzo[d]thiazol-2-yl)-6,7-dihydro-1H-imidazo[4,5-c]pyridin-5(4H)-yl)methanone]	1000 to 5000
Cc1ncoc1C(=O)N1CCc2[nH]cnc2[C@@H]1c1nc2c(F)cccc2s1 [Example 1320, (R)-(4-(4-fluorobenzo[d]thiazol-2-yl)-6,7-dihydro-1H-imidazo[4,5-c]pyridin-5(4H)-yl)(4-methyloxazol-5-yl)methanone]	1000 to 5000
CC(C)n1ncnc1C(=O)N1CCc2[nH]cnc2[C@H]1c1nc2c(F)cccc2s1 [Example 2039, (S)-(4-(4-fluorobenzo[d]thiazol-2-yl)-6,7-dihydro-1H-imidazo[4,5-c]pyridin-5(4H)-yl)(1-isopropyl-1H-1,2,4-triazol-5-yl)methanone]	< 500
O=C(CCC1CCCC1)N1CCc2[nH]cnc2[C@H]1c1nc2ccccc2[nH]1 [Example 913, (S)-1-(4-(1H-benzo[d]imidazol-2-yl)-6,7-dihydro-1H-imidazo[4,5-c]pyridin-5(4H)-yl)-3-cyclopentylpropan-1-one]	500 to 1000
C[C@H](O)c1nc(C(F)F)c(C(=O)N2CCc3[nH]cnc3[C@H]2c2nc3c(F)cccc3s2)o1 [Example 1961, (4-(difluoromethyl)-2-((S)-1-hydroxyethyl)oxazol-5-yl) ((S)-4-(4-fluorobenzo[d]thiazol-2-yl)-6,7-dihydro-1H-imidazo[4,5-c]pyridin-5(4H)-yl)methanone]	< 500

Results, then the molecule that gave them:

AC50 [nM]	SMILES
500 to 1000	O=C(c1cn(-c2ccccn2)nc1Cl)N1CCc2[nH]cnc2[C@H]1c1nc2ccccc2s1 [Example 1907]
> 5000	O=C(c1ocnc1-c1ccccn1)N1CCc2[nH]cnc2[C@@H]1c1nc2ccccc2s1 [Example 1449, (R)-(4-(benzo[d]thiazol-2-yl)-6,7-dihydro-1H-imidazo[4,5-c]pyridin-5(4H)-yl)(4-(pyridin-2-yl)oxazol-5-yl)methanone]
> 5000	O=C(c1scnc1Cl)N1CCc2[nH]cnc2[C@@H]1c1nc2ccc(F)cc2s1 [Example 1141]
500 to 1000	O=C(CCC1CCCC1)N1CCc2[nH]cnc2[C@H]1c1nc2ccccc2s1 [Example 1015]
< 500	O=C(c1nnc(-c2ccc(F)cc2)o1)N1CCc2[nH]cnc2[C@H]1c1nc2ccccc2s1 [Example 1369]
> 5000	Cc1nc(C(C)(C)O)oc1C(=O)N1CCc2[nH]cnc2[C@@H]1c1nc2ccccc2s1 [Example 1470, (R)-(4-(benzo[d]thiazol-2-yl)-6,7-dihydro-1H-imidazo[4,5-c]pyridin-5(4H)-yl)(2-(2-hydroxypropan-2-yl)-4-methyloxazol-5-yl)methanone]
500 to 1000	Cc1ccc2sc([C@@H]3c4nc[nH]c4CCN3C(=O)c3cncs3)nc2c1 [Example 1293, (S)-(4-(5-methylbenzo[d]thiazol-2-yl)-6,7-dihydro-1H-imidazo[4,5-c]pyridin-5(4H)-yl)(thiazol-5-yl)methanone]
< 500	O=C(c1nccs1)N1CCc2[nH]cnc2[C@H]1c1nc2ccccc2s1 [Example 1007]
1000 to 5000	O=C(CCc1nccs1)N1CCc2[nH]cnc2[C@@H]1c1nc2cccc(F)c2s1 [Example 1036, (R)-1-(4-(7-fluorobenzo[d]thiazol-2-yl)-6,7-dihydro-1H-imidazo[4,5-c]pyridin-5(4H)-yl)-3-(thiazol-2-yl)propan-1-one]
500 to 1000	O=C(c1cnco1)N1CCc2[nH]cnc2[C@H]1c1nc2ccccc2s1 [Example 1097]

Same assay, conditions: A375 cells expressing human R408W PAH; 24 hrs with compound; 13C-Tyrosine by LC-MS; average where tested multiple times

SMILES	AC50
NC(=O)c1nc(-c2ccccn2)oc1C(=O)N1CCc2[nH]cnc2[C@H]1c1nc2ccccc2s1 (single isomer, unassigned)	E, E
NC(=O)Cn1cc(C(=O)N2CCc3[nH]cnc3C2c2nc3c(F)cccc3s2)c(Cl)n1 (stereo not shown)	E, E

Same assay, conditions: A375 cells expressing human R408W PAH; 24 hrs with compound; 13C-Tyrosine by LC-MS; average where tested multiple times; read-out: AC50

SMILES	AC50 [nM]
Cc1nc(C(=O)N2CCc3[nH]cnc3C2c2nc3c(F)cccc3s2)n(C)n1 (stereo not shown)	> 5000
Cc1ncc(C(=O)N2CCc3[nH]cnc3[C@H]2c2nc3c(F)cccc3s2)o1 (single isomer, unassigned)	1000 to 5000
Cc1ncoc1C(=O)N1CC2(CC2)c2[nH]cnc2C1c1nc2c(F)cccc2s1 (stereo not shown)	> 5000
CC(C)(O)c1cc(C(=O)N2CCc3[nH]cnc3[C@H]2c2nc3ccccc3s2)sn1 (single isomer, unassigned)	1000 to 5000
O=C(c1ncn2ccccc12)N1CCc2[nH]cnc2[C@@H]1c1nc2ccc(F)cc2s1 (single isomer, unassigned)	> 5000
Cc1nc(-c2ccccn2)oc1C(=O)N1CC2(CC2)c2[nH]cnc2C1c1nc2ccccc2s1 (stereo not shown)	> 5000
O=C(c1cnco1)N1CC2(CC2)c2[nH]cnc2C1c1nc2c(F)cccc2s1 (stereo not shown)	> 5000
CN(C)CCCc1nnc(C(=O)N2CCc3[nH]cnc3[C@@H]2c2nc3ccccc3s2)o1 (single isomer, unassigned)	> 5000

Further lines, results first:

AC50 [nM]	SMILES
> 5000	Cc1ncsc1C(=O)N1CCc2[nH]cnc2C1c1nc2ccccc2s1 (stereo not shown)
> 5000	O=C(C1CC1F)N1CCc2[nH]cnc2C1c1nc2ccccc2s1 (stereo not shown)
1000 to 5000	O=C(CCCc1nccs1)N1CCc2[nH]cnc2[C@H]1c1nc2ccccc2[nH]1 [(S)-1-(4-(1H-benzo[d]imidazol-2-yl)-1,4,6,7-tetrahydro-5H-imidazo[4,5-c]pyridin-5-yl)-4-(thiazol-2-yl)butan-1-one]
